Laboratory results taken from patent US20140357633A1, “COMPOUNDS FOR INHIBITING THE INTERACTION OF BCL2 WITH BINDING PARTNERS” (NOVARTIS AG, priority 2011, published 2014).
Values joined by “and” are separate entries in the source; they are usually repeats but may differ in a detail not shown here. Equal values may be shown once.

Tests used:
[1] = biological target: BCL-2 (binding to BAD peptide) (Homo sapiens, UniProt P10415); test: SPR (Biacore) solution inhibition assay, BCL-2 binding to immobilized BAD peptide; settings: biotinylated BAD peptide surface, 56 nM BCL-2, 25° C.; range = high and low IC50 values from multiple experiments; read-out: BCL2_SPR IC50 BAD
Description: (§1) The present method includes utility of a Surface plasmon resonance (SPR)-based biosensor (Biacore™′ GE Healthcare, Uppsala, Sweden) to characterize BCL-2 inhibitors.
(§2) Biacore™ utilizes the phenomenon of surface plasmon resonance (SPR) to detect and measure binding interactions. In a typical Biacore experiment, one of the interacting molecules (ligand) is immobilized on a flexible dextran matrix while the interacting partner (analyte) is allowed to flow across that surface. A binding interaction results in an increase in mass on the sensor surface and a corresponding direct change in the refractive index of the medium in the vicinity of the sensor surface. Changes in refractive index or signal are recorded in resonance units (R.U.) Signal changes due to association and dissociation of complexes are monitored in a non-invasive manner, continuously and in real-time, the results of which are reported in the form of a sensorgram.
(§3) The SPR assay is configured to examine solution inhibition of BCL-2 binding to peptide derivatized sensor surfaces to generate IC50 values as a measure of inhibitor potency.
(§4) Biacore™ A100 (GE Healthcare, Uppsala, Sweden) was used to conduct all experiments reported herein. Sensor surface preparation and all interaction analyses experiments were performed at 25° C. Reagents were purchased from GE Healthcare. Running buffer containing 10 mM Hepes, pH7.4, 150 mM sodium chloride, 1.25 mM Dithiothreitol, 3% Dimethyl sulfoxide and 0.05% polysorbate 20 were utilized throughout all analyses.
(§5) Biotinylated BAK, BAD and NOXA peptides were diluted to 10 nM in running buffer and captured onto a sensor surface pre-derivatized with streptavidin (sensor chip SA) to peptide surface densities in the range 50-100 R.U. Peptide captured surfaces were blocked with 500 μM PEO2-Biotin.
(§6) Interaction analyses were performed by first equilibrating each sample within a 6 point three fold compound dilution series in the range 16 μM to […] with 56 nM BCL-2 for one hour during instrument start-up procedures. Protein compound mixtures were then injected over each peptide surface in parallel for 60 seconds at a flow-rate of 30 μL/min. 56 nM BCL-2 control samples were also prepared and run at regular intervals during the assay. Surface regeneration was performed at the end of each analysis cycle by two 30 second injections of 10 mM Glycine, pH 2.5, 1M Sodium Chloride, 0.05% polysorbate 20. Samples and control compound samples were run in duplicate and controls are also run at regular intervals during the assay to monitor surface and assay performance.
(§7) Data analyses are carried out using Biacore™ A100 evaluation software v1.1 to validate assay quality. Binding level report points were used relative to BCL-2 control samples to calculate % inhibition values for each compound protein mixture. […] The range of data shown in table 1 represents the high and low IC50 values obtained from multiple experiments.

[2] = biological target: BCL-2 (binding to BAK peptide) (Homo sapiens, UniProt P10415); test: SPR (Biacore) solution inhibition assay, BCL-2 binding to immobilized BAK peptide; settings: biotinylated BAK peptide surface, 56 nM BCL-2, 25° C.; range = high and low IC50 values from multiple experiments; read-out: BCL2_SPR IC50 BAK
Description: as §1, §2, §3, §4, §5, §6, §7

Sequence of BCL-2 (binding to BAK peptide) (P10415 whole entry): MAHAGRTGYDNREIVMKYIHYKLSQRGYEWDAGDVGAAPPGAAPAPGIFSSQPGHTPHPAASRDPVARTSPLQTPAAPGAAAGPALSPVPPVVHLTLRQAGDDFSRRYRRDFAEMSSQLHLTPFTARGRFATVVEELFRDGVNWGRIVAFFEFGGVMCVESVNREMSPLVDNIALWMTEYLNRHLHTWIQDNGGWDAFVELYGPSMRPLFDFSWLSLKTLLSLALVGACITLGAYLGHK
Sequence of BCL-2 (binding to BAD peptide) (P10415 whole entry): as above

IC50 [1]	IC50 [2]	Compound
142 nM	106 to 116 nM	CCCCN(CCCC)C(=O)c1cc(C)n(-c2ccc(NC(=O)COc3ccccc3C#N)cc2C(=O)N2Cc3ccccc3C[C@H]2CO)n1 [Example 66]
908 to 1110 nM	1030 to 1070 nM	CCCCN(CCCC)C(=O)c1cc(C)n(-c2ccc(NC(=O)c3oc4ccccc4c3C)cc2C(=O)N2Cc3ccccc3C[C@H]2CO)n1 [Example 80]
293 to 339 nM	249 to 279 nM	CCCCN(CCCC)C(=O)c1cc(C)n(-c2ccc(NC(=O)c3cc4ccccc4cn3)cc2C(=O)N2Cc3ccccc3C[C@H]2CO)n1 [Example 123]
83 to 92.7 nM	69.4 to 74.9 nM	CCCCN(CCCC)C(=O)c1cc(C)n(-c2ccc(NC(=O)Cc3ccc(Cl)cc3)cc2C(=O)N2Cc3ccccc3C[C@H]2CO)n1 [Example 137]
628 to 760 nM	692 to 840 nM	CCCCN(CCCC)C(=O)c1cc(C)n(-c2ccc(NC(=O)c3oc(-c4ccccc4)nc3C)cc2C(=O)N2Cc3ccccc3C[C@H]2CO)n1 [Example 46]
61.2 to 66.9 nM	54.4 to 58.5 nM	CCCCN(CCCC)C(=O)c1cc(C)n(-c2ccc(NC(=O)Cc3noc4ccccc34)cc2C(=O)N2Cc3ccccc3C[C@H]2CO)n1 [Example 121]
74.1 to 100 nM	58.7 to 82.9 nM	CCCCN(CCCC)C(=O)c1cc(C)n(-c2ccc(NC(=O)c3c(C)n(C)n(-c4ccccc4)c3=O)cc2C(=O)N2Cc3ccccc3C[C@H]2CO)n1 [Example 73]
143 to 158 nM	133 to 134 nM	CCCCN(CCCC)C(=O)c1cc(C)n(-c2ccc(NC(=O)Cc3cc(F)ccc3OC)cc2C(=O)N2Cc3ccccc3C[C@H]2CO)n1 [Example 70]
1670 nM and 1170 to 1220 nM	1250 to 1270 nM and 964 to 1220 nM	CCCCN(CCCC)C(=O)c1cc(C)n(-c2ccc(NC(=O)c3cc(F)ccc3C(F)(F)F)cc2C(=O)N2Cc3ccccc3C[C@H]2CO)n1 [Example 145]
964 to 1030 nM	696 to 875 nM	CCCCN(CCCC)C(=O)c1cc(C)n(-c2ccc(NC(=O)c3n[nH]c4c3CCC4)cc2C(=O)N2Cc3ccccc3C[C@H]2CO)n1 [Example 112]
162 to 183 nM	181 to 191 nM	CCCCN(CCCC)C(=O)c1cc(C)n(-c2ccc(NC(=O)C(C)c3ccccc3)cc2C(=O)N2Cc3ccccc3C[C@H]2CO)n1 (stereo partly shown) [Example 29]
1740 to 1800 nM	1830 to 2380 nM	CCCCN(CCCC)C(=O)c1cc(C)n(-c2ccc(NC(=O)c3ccc(-c4ccc(OC)cc4)[nH]c3=O)cc2C(=O)N2Cc3ccccc3C[C@H]2CO)n1 [Example 156]
527 to 597 nM	416 to 491 nM	CCCCN(CCCC)C(=O)c1cc(C)n(-c2ccc(NC(=O)c3cn4cc(Cl)ccc4n3)cc2C(=O)N2Cc3ccccc3C[C@H]2CO)n1 [Example 43]
201 to 210 nM	146 to 168 nM	CCCCN(CCCC)C(=O)c1cc(C)n(-c2ccc(NC(=O)Cc3ccc(OC)c(F)c3)cc2C(=O)N2Cc3ccccc3C[C@H]2CO)n1 [Example 97]
611 to 628 nM	432 to 440 nM	CCCCN(CCCC)C(=O)c1cc(C)n(-c2ccc(NC(=O)c3ccc4c(C)c(C)[nH]c4c3)cc2C(=O)N2Cc3ccccc3C[C@H]2CO)n1 [Example 86]
1850 to 1900 nM	1770 to 1830 nM	CCCCN(CCCC)C(=O)c1cc(C)n(-c2ccc(NC(=O)c3ccc(OC(F)(F)F)cc3)cc2C(=O)N2Cc3ccccc3C[C@H]2CO)n1 [Example 93]
282 to 288 nM	222 to 231 nM	CCCCN(CCCC)C(=O)c1cc(C)n(-c2ccc(NC(=O)c3cc(SC)ccc3Cl)cc2C(=O)N2Cc3ccccc3C[C@H]2CO)n1 [Example 89]
273 to 284 nM	236 to 238 nM	CCCCN(CCCC)C(=O)c1cc(C)n(-c2ccc(NC(=O)c3ncoc3-c3ccccc3)cc2C(=O)N2Cc3ccccc3C[C@H]2CO)n1 [Example 44]
61.9 to 73.1 nM and 64.1 to 72.9 nM and 51 to 54.5 nM	57.2 to 59.9 nM and 58.3 to 62 nM and 52.4 to 53.4 nM	CCCCN(CCCC)C(=O)c1cc(C)n(-c2ccc(NC(=O)C(C)c3ccc4ccccc4c3)cc2C(=O)N2Cc3ccccc3C[C@H]2CO)n1 (stereo partly shown) [Example 114]

The next lines start with the molecule.

Compound	IC50 [1]	IC50 [2]
CCCCN(CCCC)C(=O)c1cc(C)n(-c2ccc(NC(=O)C(CC(=O)OCC)c3ccccc3)cc2C(=O)N2Cc3ccccc3C[C@H]2CO)n1 (stereo partly shown) [Example 53]	181 to 187 nM	162 nM
CCCCN(CCCC)C(=O)c1cc(C)n(-c2ccc(NC(=O)c3ccccc3Oc3ccccc3)cc2C(=O)N2Cc3ccccc3C[C@H]2CO)n1 [Example 68]	122 to 125 nM	100 to 103 nM
CCCCN(CCCC)C(=O)c1cc(C)n(-c2ccc(NC(=O)C3(c4ccccc4)CC3)cc2C(=O)N2Cc3ccccc3C[C@H]2CO)n1 [Example 30]	252 to 267 nM	204 to 240 nM
CCCCN(CCCC)C(=O)c1cc(C)n(-c2ccc(NC(=O)COc3cccnc3)cc2C(=O)N2Cc3ccccc3C[C@H]2CO)n1 [Example 32]	234 to 245 nM	203 to 205 nM
CCCCN(CCCC)C(=O)c1cc(C)n(-c2ccc(NC(=O)CCC(=O)O)cc2C(=O)N2Cc3ccccc3C[C@H]2CO)n1 [Example 17]	216 to 250 nM	153 to 175 nM
CCCCN(CCCC)C(=O)c1cc(C)n(-c2ccc(NC(=O)COc3ccc(C(C)C)cc3)cc2C(=O)N2Cc3ccccc3C[C@H]2CO)n1 [Example 18]	192 to 252 nM	185 to 265 nM
CCCCN(CCCC)C(=O)c1cc(C)n(-c2ccc(NC(=O)C(CC(=O)N(C)C)c3ccccc3)cc2C(=O)N2Cc3ccccc3C[C@H]2CO)n1 (stereo partly shown) [Example 99]	130 to 171 nM	111 to 144 nM
CCCCN(CCCC)C(=O)c1cc(C)n(-c2ccc(NC(=O)C(Cc3ccccc3)(Cc3ccccc3)C(=O)O)cc2C(=O)N2Cc3ccccc3C[C@H]2CO)n1 [Example 26]	46 to 63.1 nM	43.7 to 54.5 nM
CCCCN(CCCC)C(=O)c1cc(C)n(-c2ccc(NC(=O)C(CC(=O)O)c3ccccc3)cc2C(=O)N2Cc3ccccc3C[C@H]2CO)n1 (stereo partly drawn) [Example 2, 4-((4-(3-(dibutylcarbamoyl)-5-methyl-1H-pyrazol-1-yl)-3-((S)-3-(hydroxymethyl)-1,2,3,4-tetrahydroisoquinoline-2-carbonyl)phenyl)amino)-4-oxo-3-phenylbutanoic acid]	30.3 to 53.6 nM	27.5 to 44.8 nM
CCCCN(CCCC)C(=O)c1cc(C)n(-c2ccc(NC(=O)c3cn(C)nc3C(F)(F)F)cc2C(=O)N2Cc3ccccc3C[C@H]2CO)n1 [Example 155]	778 to 972 nM	729 to 935 nM
CCCCN(CCCC)C(=O)c1cc(C)n(-c2ccc(NC(=O)C(C)(C)CC(=O)O)cc2C(=O)N2Cc3ccccc3C[C@H]2CO)n1 [Example 39]	143 to 166 nM	106 to 124 nM
CCCCN(CCCC)C(=O)c1cc(C)n(-c2ccc(NC(=O)[C@H](OC)c3ccc4ccccc4c3)cc2C(=O)N2Cc3ccccc3C[C@H]2CO)n1 [Example 162]	43.5 to 44.3 nM	36.1 to 36.8 nM
CCCCN(CCCC)C(=O)c1cc(C)n(-c2ccc(NC(=O)C(CC#N)c3ccccc3)cc2C(=O)N2Cc3ccccc3C[C@H]2CO)n1 (stereo partly shown) [Example 135]	129 to 140 nM	107 to 111 nM
CCCCN(CCCC)C(=O)c1cc(C)n(-c2ccc(NC(=O)C(CC(=O)O)Cc3ccccc3)cc2C(=O)N2Cc3ccccc3C[C@H]2CO)n1 (stereo partly shown) [Example 15]	53.4 to 59 nM	44.2 to 47.7 nM
CCCCN(CCCC)C(=O)c1cc(C)n(-c2ccc(NC(=O)CC(C)S(=O)(=O)c3ccc(Cl)cc3)cc2C(=O)N2Cc3ccccc3C[C@H]2CO)n1 (stereo partly shown) [Example 90]	156 to 210 nM	159 to 187 nM
CCCCN(CCCC)C(=O)c1cc(C)n(-c2ccc(NC(=O)C3CC(=O)N(c4ccc(OCC)cc4)C3)cc2C(=O)N2Cc3ccccc3C[C@H]2CO)n1 (stereo partly shown) [Example 115]	180 to 204 nM	153 to 154 nM
